Source: patent US20240132431A1, “METHOD FOR ALKYLATING ACIDIC FUNCTIONAL GROUP” (Chugai Seiyaku Kabushiki Kaisha, priority 2021, published 2024)

Molecular target: T1, Bcl-2 protein (Recombinant Human Bcl-2 Protein) (Homo sapiens, UniProt P10415)
T1 construct: purchased Novus NBP2-34889
Assay: Binding evaluation of mixture library compounds to Bcl-2 using AS-MS (affinity selection mass spectrometry)
Conditions: for ASMS ratio (%) n = 1: replicate n = 1; for ASMS ratio (%) n = 1 / ASMS ratio (%) n = 2: ASMS Ratio(%)=(A−C)/B×100; for ASMS ratio (%) n = 2: replicate n = 2
Summary of the method: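 Affinity selection MS: Bcl-2 20 μM + 1200-cpd mixture, […]/cpd, Tris pH 7.4 buffer w/ Tween-20, DTT; 1 h 23° C dark; P-2 spin SEC; MeCN/MeOH extraction; RP LC/MS. ASMS Ratio(%) = (A−C)/B×100.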

[1] = AS-MS on the mixture of 1200 library compounds
[2] = AS-MS, mixture of 1200 compounds, Bcl-2

T1 sequence (P10415 whole entry): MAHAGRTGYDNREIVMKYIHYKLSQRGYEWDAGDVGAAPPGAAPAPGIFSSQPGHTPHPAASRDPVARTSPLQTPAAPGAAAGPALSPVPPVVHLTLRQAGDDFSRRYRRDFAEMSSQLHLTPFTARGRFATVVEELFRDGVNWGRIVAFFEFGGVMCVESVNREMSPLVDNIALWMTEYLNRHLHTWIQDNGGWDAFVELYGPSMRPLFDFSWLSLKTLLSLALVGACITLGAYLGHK

Row | ASMS ratio (%) (n = 1) | ASMS ratio (%) (n = 2) | ASMS ratio (%) n = 1 [1] [%] | ASMS ratio (%) n = 2 [1] [%] | Molecule | other results
1 | – | – | – | – | CCOc1cncc(-c2cc(CN3CCN(c4ccc(C(=O)NS(=O)(=O)c5ccc(NCCSc6ccccc6)c([N+](=O)[O-])c5)nn4)CC3)cc(OC(F)(F)F)c2)c1 [B2Q090-01, 6-[4-[[3-(5-Ethoxypyridin-3-yl)-5-(trifluoromethoxy)phenyl]methyl]piperazin-1-yl]-N-[3-nitro-4-(2-phenylsulfanylethylamino)phenyl]sulfonylpyridazine-3-carboxamide] | ASMS ratio (%) n = 1 (AS-MS, mixture library, Bcl-2): 21.8%; ASMS ratio (%) n = 2 (AS-MS, mixture library, Bcl-2): 13.2%
2 | 0.0 | 0.0 | – | – | CCOc1cncc(-c2ccccc2CN2CCN(c3ccc(C(=O)NS(=O)(=O)C(C)(C)C)cc3)CC2)c1 [B2L046-01, N-tert-Butylsulfonyl-4-[4-[[2-(5-ethoxypyridin-3-yl)phenyl]methyl]piperazin-1-yl]benzamide] | –
3 | – | – | – | – | CCOc1cccc(-c2csc(CN3CCN(c4ccc(C(=O)NS(=O)(=O)CC56CC7CC(CC(C7)C5)C6)cc4)CC3)c2)c1 [B2A067-01, N-(1-Adamantylmethylsulfonyl)-4-[4-[[4-(3-ethoxyphenyl)thiophen-2-yl]methyl]piperazin-1-yl]benzamide] | ASMS ratio (%) n = 1 (AS-MS, mixture library, Bcl-2): 0.0%; ASMS ratio (%) n = 2 (AS-MS, mixture library, Bcl-2): 0.0%
4 | 7.1 | −6.0 | – | – | CCOc1cncc(-c2cc(C(=O)N3CCN(c4ccc(C(=O)NS(=O)(=O)c5ccc(NCCSc6ccccc6)c(C(F)(F)F)c5)cc4)CC3)cc(C(C)(C)C)c2)c1 [B2R038-01, 4-[4-[3-tert-Butyl-5-(5-ethoxypyridin-3-yl)benzoyl]piperazin-1-yl]-N-[4-(2-phenylsulfanylethylamino)-3-(trifluoromethyl)phenyl]sulfonylbenzamide] | –
5 | – | – | −0.7 | −1.6 | CCOc1cccc(-c2ccc(C(=O)N3CCN(c4ccc(C(=O)N(C)CC56CC7CC(CC(C7)C5)C6)cc4)CC3)cc2F)c1 [B3A027-01, N-(1-Adamantylmethyl)-4-[4-[4-(3-ethoxyphenyl)-3-fluorobenzoyl]piperazin-1-yl]-N-methylbenzamide] | –
6 | 0.0 | 0.0 | – | – | CCOc1cncc(C#Cc2ccccc2CN2CCN(c3ccc(C(=O)NS(C)(=O)=O)nn3)CC2)c1 [B2I096-01, 6-[4-[[2-[2-(5-Ethoxypyridin-3-yl)ethynyl]phenyl]methyl]piperazin-1-yl]-N-methylsulfonylpyridazine-3-carboxamide] | –
7 | 0.0 | −15.5 | – | – | CCOc1cccc(-c2csc(C(=O)N3CCN(c4ccc(C(=O)NS(=O)(=O)c5ccc(NCCSc6ccccc6)c(C(F)(F)F)c5)cc4)CC3)c2)c1 [B2R023-01, 4-[4-[4-(3-Ethoxyphenyl)thiophene-2-carbonyl]piperazin-1-yl]-N-[4-(2-phenylsulfanylethylamino)-3-(trifluoromethyl)phenyl]sulfonylbenzamide] | –
8 | – | – | 1.5 | 3.6 | CCOc1cncc(-c2ccccc2CN2CCN(c3ccc(C(=O)N(C)CC45CC6CC(CC(C6)C4)C5)cc3)CC2)c1 [B3A046-01, N-(1-Adamantylmethyl)-4-[4-[[2-(5-ethoxypyridin-3-yl)phenyl]methyl]piperazin-1-yl]-N-methylbenzamide] | –
9 | 0.0 | 0.0 | – | – | CCOc1cncc(-c2cc(CN3CCN(c4ccc(C(=O)NS(=O)(=O)CCC(F)(F)F)nn4)CC3)cc(OC(C)C)c2)c1 [B2N084-01, 6-[4-[[3-(5-Ethoxypyridin-3-yl)-5-propan-2-yloxyphenyl]methyl]piperazin-1-yl]-N-(3,3,3-trifluoropropylsulfonyl)pyridazine-3-carboxamide] | –
10 | – | – | – | – | CCOc1cncc(-c2cc(CN3CCN(c4ccc(C(=O)NCC(F)(F)F)nn4)CC3)cc(OC(F)(F)F)c2)c1 [B1K090-01, 6-[4-[[3-(5-Ethoxypyridin-3-yl)-5-(trifluoromethoxy)phenyl]methyl]piperazin-1-yl]-N-(2,2,2-trifluoroethyl)pyridazine-3-carboxamide] | ASMS ratio (%) n = 1 [2]: −0.6%; ASMS ratio (%) n = 2 [2]: −1.9%
11 | 0.0 | 0.0 | – | – | CCOc1cccc(-c2ccccc2CN2CCN(c3ccc(C(=O)NS(=O)(=O)C(C)(C)C)cc3)CC2)c1 [B2L045-01, N-tert-Butylsulfonyl-4-[4-[[2-(3-ethoxyphenyl)phenyl]methyl]piperazin-1-yl]benzamide] | –
12 | – | – | 13.4 | −14.2 | CCOc1cccc(-c2cc(CN3CCN(c4ccc(C(=O)N(C)CC56CC7CC(CC(C7)C5)C6)nn4)CC3)cc(OCC)c2)c1 [B3A081-01, N-(1-Adamantylmethyl)-6-[4-[[3-ethoxy-5-(3-ethoxyphenyl)phenyl]methyl]piperazin-1-yl]-N-methylpyridazine-3-carboxamide] | –
13 | – | – | – | – | CCOc1cncc(-c2ccc(C(=O)N3CCN(c4ccc(C(=O)NS(=O)(=O)CC56CC7CC(CC(C7)C5)C6)nn4)CC3)cc2C)c1 [B2A004-01, N-(1-Adamantylmethylsulfonyl)-6-[4-[4-(5-ethoxypyridin-3-yl)-3-methylbenzoyl]piperazin-1-yl]pyridazine-3-carboxamide] | ASMS ratio (%) n = 1 (AS-MS, mixture library, Bcl-2): 0.0%; ASMS ratio (%) n = 2 (AS-MS, mixture library, Bcl-2): 0.0%
14 | – | – | – | – | CCOc1cncc(-c2ccccc2CN2CCN(c3ccc(C(=O)NCC(F)(F)F)nn3)CC2)c1 [B1K072-01, 6-[4-[[2-(5-Ethoxypyridin-3-yl)phenyl]methyl]piperazin-1-yl]-N-(2,2,2-trifluoroethyl)pyridazine-3-carboxamide] | ASMS ratio (%) n = 1 [2]: −0.6%; ASMS ratio (%) n = 2 [2]: 1.7%
15 | – | – | 1.6 | −0.4 | CCOc1cncc(-c2csc(C(=O)N3CCN(c4ccc(C(=O)N(C)CC56CC7CC(CC(C7)C5)C6)cc4)CC3)c2)c1 [B3A024-01, N-(1-Adamantylmethyl)-4-[4-[4-(5-ethoxypyridin-3-yl)thiophene-2-carbonyl]piperazin-1-yl]-N-methylbenzamide] | –
16 | 0.0 | 0.0 | – | – | CCOc1cncc(-c2cc(CN3CCN(c4ccc(C(=O)NS(C)(=O)=O)cc4)CC3)cc(OCC)c2)c1 [B2I056-01] | –
17 | – | – | – | – | 4-[4-[3-[4-(3-Ethoxyphenyl)pyrazol-1-yl]-5-(trifluoromethyl)benzoyl]piperazin-1-yl]-N-propylbenzamide [B1M025-01] | ASMS ratio (%) n = 1 [2]: 3.6%; ASMS ratio (%) n = 2 [2]: −1.2%
18 | – | – | 8.4 | −15.2 | CCOc1cncc(C#Cc2ccccc2C(=O)N2CCN(c3ccc(C(=O)N(C)CC45CC6CC(CC(C6)C4)C5)cc3)CC2)c1 [B3A030-01, N-(1-Adamantylmethyl)-4-[4-[2-[2-(5-ethoxypyridin-3-yl)ethynyl]benzoyl]piperazin-1-yl]-N-methylbenzamide] | –

Row | Molecule | ASMS ratio (%) (n = 1) | ASMS ratio (%) (n = 2) | ASMS ratio (%) n = 1 [1] [%] | ASMS ratio (%) n = 2 [1] [%] | other results
19 | CCOc1cccc(-c2cc(C(=O)N3CCN(c4ccc(C(=O)N(CC)CC)cc4)CC3)cc(C(C)(C)C)c2)c1 [B4J037-01, 4-[4-[3-tert-Butyl-5-(3-ethoxyphenyl)benzoyl]piperazin-1-yl]-N,N-diethylbenzamide] | – | – | 2.7 | −1.5 | –
20 | CCOc1cccc(-c2ccc(CN3CCN(c4ccc(C(=O)N(CC)CC)cc4)CC3)c(OC)c2)c1 [B4J053-01, 4-[4-[[4-(3-Ethoxyphenyl)-2-methoxyphenyl]methyl]piperazin-1-yl]-N,N-diethylbenzamide] | – | – | −0.1 | −6.0 | –
